Assay results: patent US4732977A, “Carbapenem antibiotics” (priority 1986, dated 1988)
Values after ≈ are worked out from the molar mass of the structure shown. Like-named read-outs stand apart in the source and are kept apart here.

Key:
P. aeruginosa A21213 = assay: M.I.C., tube dilution; type: cell-based; details: Pseudomonas aeruginosa, A21213, overnight incubation at 37° C., Nutrient Broth; read-out: MIC
P. vulgaris A21559 = assay: M.I.C., tube dilution; type: cell-based; details: Proteus vulgaris, A21559, overnight incubation at 37° C., Nutrient Broth; read-out: MIC
[1] = Blood levels in mice after intramuscular administration; details: mouse, blood, im, 20 mg/kg;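 note: compounds dissolved in 0.1 M phosphate buffer at pH 7, data from one experiment using four mice for each compound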
From the text: Compounds were solubilized in 0.1 M phosphate buffer pH 7.
a single test; 4 mice used per compound.
Compounds were solubilized in 0.1 M phosphate buffer, pH 7.
on a single test; 4 mice per compound.

S. pneumoniae A-9585 = assay: M.I.C., tube dilution; type: cell-based; details: Streptococcus pneumoniae, A9585; overnight incubation at 37° C., Nutrient Broth; read-out: MIC
E. coli A20341-1 = assay: M.I.C., tube dilution; type: cell-based; details: Escherichia coli
S. pyogenes A-9604 = assay: M.I.C., tube dilution; type: cell-based; details: Streptococcus pyogenes, A9604; overnight incubation at 37° C., Nutrient Broth; read-out: MIC
E. coli A15119 = assay: M.I.C., tube dilution; type: cell-based; details: Escherichia coli, A15119
B. fragilis A22862 = assay: M.I.C., tube dilution; type: cell-based; details: Bacteroides fragilis, overnight incubation at 37° C., Nutrient Broth
E. coli A-15119 = assay: Protective effect in intramuscular treatment of infected mice; type: in vivo; details: Escherichia coli, read-out: PD50/treatment
Method: (§1) The PD50 (dose in mg/kg required to give protection to 50% of the infected mice) is indicated.
with drugs 0 and 2 hours postinfection.
(§2) The PD50 (dose in mg/kg) required to give protection to 50% of the infected mice is indicated.

P. aeruginosa A-9843a = assay: animal or person; type: in vivo, mice; details: Pseudomonas aeruginosa, A9843A, in Mus musculus, im, read-out: PD50/treatment
Method: as §1
with drugs 0 and 2 hours postinfection.
as §2

K. pneumoniae A9664 = assay: Protective effect in intramuscular treatment of infected mice; type: in vivo; details: Klebsiella pneumoniae
From the text: as §2

P. mirabilis A-9900 = assay: as above; type: in vivo; details: Proteus mirabilis, mice, i.m., read-out: PD50/treatment
Method: as §1
with drugs 0 and 2 hours postinfection.
as §2

S. aureus A-9606 = assay: as above; type: in vivo; details: Staphylococcus aureus, read-out: PD50/treatment
Method: as §1
with drugs 0 and 2 hours postinfection.
as §2

H. influenzae A-9833 = assay: M.I.C., tube dilution; type: cell-based; details: Haemophilus influenzae, A9833; overnight incubation at 37° C., Nutrient Broth
H. influenzae A21518 = assay: M.I.C., tube dilution; type: cell-based; details: Haemophilus influenzae, overnight incubation at 37° C., Nutrient Broth
S. faecalis A20688 = assay: M.I.C., tube dilution; type: cell-based; details: Enterococcus faecalis, A20688, overnight incubation at 37° C., Nutrient Broth; read-out: MIC
S. aureus A-9537 = assay: M.I.C., tube dilution; type: cell-based; details: Staphylococcus aureus, read-out: MIC
[2] = test system: S. aureus A15097 (Meth-res.); assay: M.I.C., tube dilution; type: cell-based; details: Staphylococcus aureus, overnight incubation at 37° C.
P. aeruginosa A24081 = assay: Protective effect in intramuscular treatment of infected mice; type: in vivo; details: Pseudomonas aeruginosa, read-out: PD50/treatment
From the text: as §2

K. pneumoniae A-9664 = assay: M.I.C., tube dilution; type: cell-based; details: Klebsiella pneumoniae, A9664, overnight incubation at 37° C., Nutrient Broth
S. marcescens A20019 = assay: M.I.C., tube dilution; type: cell-based; details: Serratia marcescens, A20019; overnight incubation at 37° C., Nutrient Broth
E. cloacae A-9659 = assay: M.I.C., tube dilution; type: cell-based; details: Enterobacter cloacae, A9659
P. rettgeri A22424 = assay: M.I.C., tube dilution; type: cell-based; details: Providencia rettgeri, A22424
K. pneumoniae A20468 = assay: M.I.C., tube dilution; type: cell-based; details: Klebsiella pneumoniae, A20468, overnight incubation at 37° C., Nutrient Broth
[3] = im, mice, i.m., P. aeruginosa A24081
[4] = im, K. pneumoniae A9664, read-out: PD50/treatment
[5] = im, mice, i.m., S. aureus A9606
[6] = A203411, overnight incubation at 37° C., Nutrient Broth, read-out: MIC
[7] = overnight incubation at 37° C., Nutrient Broth, read-out: MIC

| SMILES | MIC (P. aeruginosa A21213) | MIC (P. vulgaris A21559) | AUC [1] | Cmax [1] | half-life [1] | MIC (S. pneumoniae A-9585) | MIC (S. pyogenes A-9604) | MIC (B. fragilis A22862) | ED50 (P. aeruginosa A-9843a) | MIC (S. faecalis A20688) | MIC (S. aureus A-9537; A9537, +50% serum) | ED50 (K. pneumoniae A9664; [4]) | ED50 (P. mirabilis A-9900; im, P. mirabilis A9900) | ED50 (S. aureus A-9606; [5]) | other results |
| --- | --- | --- | --- | --- | --- | --- | --- | --- | --- | --- | --- | --- | --- | --- | --- |
| C[C@@H](O)[C@H]1C(=O)N2C(C(=O)[O-])=C(SCCc3cc[n+](C)cc3)C[C@H]12 [Example 2] | 2 µg/mL (≈ 5.74 µM) | 0.016 µg/mL (≈ 0.0459 µM) | 5300 ng·h/mL | 13900 ng/mL | 9 min | 0.001 µg/mL (≈ 0.00287 µM) | 0.001 µg/mL (≈ 0.00287 µM) | – | – | – | – | – | – | – | MIC (E. coli A20341-1; A203411, table 2, no inoculum dilution printed, read-out: MIC): 0.016 µg/mL (≈ 0.0459 µM); MIC (E. coli A15119; table 2, no inoculum dilution printed, read-out: MIC): 0.016 µg/mL (≈ 0.0459 µM) |
| C[C@@H](O)[C@H]1C(=O)N2C(C(=O)[O-])=C(SCCc3cccc[n+]3C)C[C@H]12 [Example 5, 3-(N-Methylpyridine-2-yl-ethanethio)-6α-[1-(R)-hydroxyethyl]-7-oxo-1-azabicyclo(3.2.0)hept-2-ene-2-carboxylate] | 2 µg/mL (≈ 5.74 µM) | 0.016 µg/mL (≈ 0.0459 µM) | – | – | – | – | – | 0.03 µg/mL (≈ 0.0861 µM) | 1.6 mg/kg | – | – | – | – | – | ED50 (E. coli A-15119; A15119, im, mice, i.m., E. coli, strain not given): 4 mg/kg; ED50 (K. pneumoniae A9664; A9664, im, i.m., K. pneumoniae, strain not given, read-out: PD50/treatment): 3 mg/kg; ED50 (P. mirabilis A-9900; A9900, im, P. mirabilis, strain not given): 10 mg/kg; ED50 (S. aureus A-9606; A9606, im, mice, i.m., S. aureus, strain not given): 0.2 mg/kg; MIC (H. influenzae A-9833): 4 µg/mL (≈ 11.5 µM); MIC (H. influenzae A21518): 4 µg/mL (≈ 11.5 µM) |
| CCC[n+]1ccc(CSC2=C(C(=O)[O-])N3C(=O)[C@H]([C@@H](C)O)[C@H]3C2)cc1 [Example 6, 3-(1-Propylpyridine-4-yl-methanethio)-6α-[1-(R)-hydroxyethyl]-7-oxo-1-azabicyclo(3.2.0)hept-2-ene-2-carboxylate] | 1 µg/mL (≈ 2.76 µM) | 0.06 µg/mL (≈ 0.166 µM) | 8500 ng·h/mL | 17700 ng/mL | 9 min | – | – | 0.03 µg/mL (≈ 0.0828 µM) | 0.4 mg/kg | 0.5 µg/mL (≈ 1.38 µM) | 0.06 µg/mL (≈ 0.166 µM) | – | – | – | MIC (E. coli A20341-1; A203411, overnight incubation at 37° C., Nutrient Broth): 0.06 µg/mL (≈ 0.166 µM); MIC (E. coli A15119; overnight incubation at 37° C., Nutrient Broth): 0.06 µg/mL (≈ 0.166 µM); MIC [2]: 4 µg/mL (≈ 11 µM) |
| Cc1ccc[n+](C)c1CSC1=C(C(=O)[O-])N2C(=O)[C@H]([C@@H](C)O)[C@H]2C1 [Example 7, 3-(N-Methyl-3-methylpyridine-2-methanethio)-6α-[1-(R)-hydroxyethyl]-7-oxo-1-azabicyclo(3.2.0)hept-2-ene-2-carboxylate] | – | 0.008 µg/mL (≈ 0.023 µM) | 11800 ng·h/mL | 19200 ng/mL | 11 min | – | – | 0.016 µg/mL (≈ 0.0459 µM) | 0.2 mg/kg | – | – | 1 mg/kg | 2.4 mg/kg | – | ED50 (E. coli A-15119; A15119, im): 0.2 mg/kg; ED50 (P. aeruginosa A24081; [3]): 0.1 mg/kg; ED50 (S. aureus A-9606; A9606, im): 0.2 mg/kg; MIC [2]: 2 µg/mL (≈ 5.74 µM) |
| Cc1scc(CSC2=C(C(=O)[O-])N3C(=O)[C@H]([C@@H](C)O)[C@H]3C2)[n+]1C [Example 8, 3-(2-Methyl-N-methyl-thiazole-4-yl-methanethio)-6-α-[1-(R)-hydroxyethyl]-7-oxo-1-azabicyclo(3.2.0)hept-2-ene-2-carboxylate] | – | 0.03 µg/mL (≈ 0.0846 µM) | 10500 ng·h/mL | 18800 ng/mL | 11 min | – | – | – | 0.19 mg/kg | 0.5 µg/mL (≈ 1.41 µM) | – | 1.8 mg/kg | 1.4 mg/kg | 0.21 mg/kg | ED50 (E. coli A-15119; im, mice, i.m., E. coli A15119): 0.86 mg/kg; ED50 (P. aeruginosa A24081; [3]): 0.33 mg/kg |
| C[C@@H](O)[C@H]1C(=O)N2C(C(=O)[O-])=C(SCc3n(C)cc[n+]3C)C[C@H]12 [Example 9, 3-(N,N'-Dimethylimidazole-2-yl-methanethio)-6α-[1-(R)-hydroxyethyl]-7-oxo-1-azabicyclo(3.2.0)hept-2-ene-2-carboxylate] | – | 0.008 µg/mL (≈ 0.0237 µM) | 8500 ng·h/mL | 16700 ng/mL | 12 min | 0.001 µg/mL (≈ 0.00296 µM) | 0.001 µg/mL (≈ 0.00296 µM) | – | 0.19 mg/kg | – | 0.008 µg/mL (≈ 0.0237 µM) | 1.8 mg/kg | 7.1 mg/kg | – | ED50 (E. coli A-15119; im, mice, i.m., E. coli A15119): 1.2 mg/kg; ED50 (P. aeruginosa A24081; A24081, im): 0.19 mg/kg |
| Cc1sc(CSC2=C(C(=O)[O-])N3C(=O)[C@H]([C@@H](C)O)[C@H]3C2)c(C)[n+]1C [Example 10, 3-(2,3,4-Trimethylthiazole-5-yl-methanethio)-6α-[1-(R)-hydroxyethyl]-7-oxo-1-azabicyclo(3.2.0)hept-2-ene-2-carboxylate] | 2 µg/mL (≈ 5.43 µM) | 0.016 µg/mL (≈ 0.0434 µM) | 9500 ng·h/mL | 20100 ng/mL | 11 min | 0.001 µg/mL (≈ 0.00271 µM) | 0.001 µg/mL (≈ 0.00271 µM) | – | – | – | – | – | – | – | MIC (K. pneumoniae A-9664): 0.06 µg/mL (≈ 0.163 µM); MIC (S. marcescens A20019): 0.06 µg/mL (≈ 0.163 µM) |
| CC(SC1=C(C(=O)[O-])N2C(=O)[C@H]([C@@H](C)O)[C@H]2C1)c1cc[n+](C)cc1 (stereo partly drawn) [Example 12] | 2 µg/mL (≈ 5.74 µM) | 0.016 µg/mL (≈ 0.0459 µM) | – | – | – | 0.002 µg/mL (≈ 0.00574 µM) | – | – | 1.8 mg/kg | 0.5 µg/mL (≈ 1.44 µM) | 0.016 µg/mL (≈ 0.0459 µM) | – | – | 0.89 mg/kg | MIC (E. cloacae A-9659): 0.06 µg/mL (≈ 0.172 µM); MIC (S. aureus A-9537; A9537, overnight incubation at 37° C., Nutrient Broth): 0.008 µg/mL (≈ 0.023 µM); MIC (E. coli A20341-1; [6]): 0.008 µg/mL (≈ 0.023 µM); MIC (P. rettgeri A22424): 0.13 µg/mL (≈ 0.373 µM); MIC (K. pneumoniae A20468): 0.06 µg/mL (≈ 0.172 µM) |
| Cc1c(CSC2=C(C(=O)[O-])N3C(=O)[C@H]([C@@H](C)O)[C@H]3C2)ccc[n+]1C [Example 14, 3-(2-Methyl-N-methylpyridine-3-yl-methanethio)-6α[1-(R)-hydroxyethyl]-7-oxo-1-azabicyclo(3.2.0)hept-2-ene-2-carboxylate] | 0.5 µg/mL (≈ 1.44 µM) | 0.016 µg/mL (≈ 0.0459 µM) | 7600 ng·h/mL | 15800 ng/mL | 13 min | 0.0005 µg/mL (≈ 0.00144 µM) | 0.0005 µg/mL (≈ 0.00144 µM) | – | 0.45 mg/kg | – | – | – | – | 0.07 mg/kg | – |
| C[C@@H](O)[C@H]1C(=O)N2C(C(=O)[O-])=C(SCc3cn(CC(=O)O)n[n+]3C)C[C@H]12 [Example 18, Potassium 3-[4-(1-carboxylatomethyl-3-methyl-1,2,3-triazolium)-methanethio]-6α-[1-(R)-hydroxyethyl]-7-oxo-1-azabicyclo[3.2.0]hept-2-ene-2-carboxylate] | 63 µg/mL | – | 3900 ng·h/mL | 14900 ng/mL | 6 min | 1 µg/mL | 2 µg/mL | – | – | 63 µg/mL | > 63 µg/mL | – | – | – | MIC (E. cloacae A-9659; [7]): 63 µg/mL; MIC (E. coli A20341-1; [6]): 16 µg/mL; MIC (E. coli A15119; [7]): 16 µg/mL; MIC (K. pneumoniae A20468; read-out: MIC): 63 µg/mL |
